Source: US20260124214A1, “HETEROCYCLIC COMPOUNDS FOR USE IN THE TREATMENT OF CANCER” (ARTIOS PHARMA LIMITED, priority 2021, published 2026)
Where a name gives a salt, the structure may show the parent alone.

Molecular target: T1, Human Polθ polymerase domain (aa1820-2590) (Homo sapiens, UniProt O75417)
T1 construct: Human Polθ polymerase domain (aa1820-2590) was expressed in E. Coli; made in house; host or cells: E. coli
T1 sequence (O75417 1820-2590): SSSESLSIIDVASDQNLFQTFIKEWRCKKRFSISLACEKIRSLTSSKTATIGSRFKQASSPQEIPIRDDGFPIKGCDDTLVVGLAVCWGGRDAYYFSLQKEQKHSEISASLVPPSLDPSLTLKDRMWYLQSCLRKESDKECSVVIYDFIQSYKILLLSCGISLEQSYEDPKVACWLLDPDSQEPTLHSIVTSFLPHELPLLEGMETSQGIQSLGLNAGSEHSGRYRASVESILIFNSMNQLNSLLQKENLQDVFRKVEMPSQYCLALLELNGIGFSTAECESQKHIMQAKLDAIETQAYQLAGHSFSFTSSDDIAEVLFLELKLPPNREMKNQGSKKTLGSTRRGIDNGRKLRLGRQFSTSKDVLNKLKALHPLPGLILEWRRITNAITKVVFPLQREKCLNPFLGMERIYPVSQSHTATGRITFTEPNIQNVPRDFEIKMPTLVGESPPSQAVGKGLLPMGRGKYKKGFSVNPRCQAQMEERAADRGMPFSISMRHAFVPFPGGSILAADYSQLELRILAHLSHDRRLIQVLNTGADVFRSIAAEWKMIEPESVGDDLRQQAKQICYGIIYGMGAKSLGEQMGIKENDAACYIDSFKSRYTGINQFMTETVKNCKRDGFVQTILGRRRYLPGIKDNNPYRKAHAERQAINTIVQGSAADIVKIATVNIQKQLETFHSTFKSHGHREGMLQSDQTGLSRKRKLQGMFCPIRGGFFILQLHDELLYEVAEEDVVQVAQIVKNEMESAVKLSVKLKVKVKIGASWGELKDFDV
Assay: Polθ Polymerase Domain WT KI Assay (PicoGreen)
Type: biochemical
Details: 100 nM DNA substrate, 0.156 nM Polθ, initial rates vs inhibitor concentration
Summary of the method: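 E. coli-expressed human Polθ polymerase domain (aa1820-2590) on annealed DNA II Short/Long primer-template (1.2:1), in 25 mM Tris pH 7.5, NaCl, 5% glycerol, 0.01% Triton X-100, 0.1 mg/ml BSA, 1 mM DTT, 1% DMSO. EDTA-quenched timepoints to 180 min, PicoGreen fluorescence. Initial rates vs inhibitor concentration fitted four-parameter for KI.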

Structure (SMILES)	Ki
Cc1cc(C(F)(F)F)cc(N2C(=O)C[C@@H]3CN(CCN4CCNCC4)c4c(C)cccc4NC(=O)[C@H]32)n1 [Example 148, (3aR,11aS)-6-Methyl-1-(6-methyl-4-(trifluoromethyl)pyridin-2-yl)-5-(2-(piperazin-1-yl)ethyl)-1,3a,4,5,10,11a-hexahydro-2H-benzo[b]pyrrolo[2,3-f][1,4]diazocine-2,11(3H)-dione]	3.04 nM
Cc1cc(C(F)(F)F)cc(N2C(=O)C[C@@H]3CN(Cc4nc5n(c4F)CCN(C)C5)c4c(Cl)cccc4N(C)C(=O)[C@H]32)n1 [Example 81, (3aR,11aS)-6-Chloro-5-((3-fluoro-7-methyl-5,6,7,8-tetrahydroimidazo[1,2-a]pyrazin-2-yl)methyl)-10-methyl-1-(6-methyl-4-(trifluoromethyl)pyridin-2-yl)-1,3a,4,5,10,11a-hexahydro-2H-benzo[b]pyrrolo[2,3-f][1,4]diazocine-2,11(3H)-dione hydrochloride]	1 nM
Cc1cc(C(F)(F)F)cc(N2C(=O)C[C@@H]3CN(CCN4CCN(C)CC4)c4c(C)cccc4NC(=O)[C@H]32)n1 [Example 149, (3aR,11aS)-6-Methyl-1-(6-methyl-4-(trifluoromethyl)pyridin-2-yl)-5-(2-(4-methylpiperazin-1-yl)ethyl)-1,3a,4,5,10,11a-hexahydro-2H-benzo[b]pyrrolo[2,3-f][1,4]diazocine-2,11(3H)-dione]	3.25 nM
Cc1cc(C(F)(F)F)cc(N2C(=O)C[C@@H]3CN(Cc4nc5n(c4C)CCN(C)C5)c4c(C)cccc4N(C)C(=O)[C@H]32)n1 [Example 82, (3aR,11aS)-5-((3,7-Dimethyl-5,6,7,8-tetrahydroimidazo[1,2-a]pyrazin-2-yl)methyl)-6,10-dimethyl-1-(6-methyl-4-(trifluoromethyl)pyridin-2-yl)-1,3a,4,5,10,11a-hexahydro-2H-benzo[b]pyrrolo[2,3-f][1,4]diazocine-2,11(3H)-dione]	0.431 nM
Cc1cc(C(F)(F)F)cc(N2C(=O)C[C@@H]3CN(Cc4cn5c(n4)[C@H](C)N(C)CC5)c4c(Cl)cccc4N(C)C(=O)[C@H]32)n1 (racemic) [Example 96b, (3aR,11aS)-6-Chloro-5-(((S/R)-7,8-dimethyl-5,6,7,8-tetrahydroimidazo[1,2-a]pyrazin-2-yl)methyl)-10-methyl-1-(6-methyl-4-(trifluoromethyl)pyridin-2-yl)-1,3a,4,5,10,11a-hexahydro-2H-benzo[b]pyrrolo[2,3-f][1,4]diazocine-2,11(3H)-dione]	1.66 nM
CCN(CC)CCN1C[C@H]2CC(=O)N(c3cc(C(F)(F)F)cc(C)n3)[C@@H]2C(=O)N(C)c2cccc(Cl)c21 [Example 21, (3aR,11aS)-6-Chloro-5-(2-(diethylamino)ethyl)-10-methyl-1-(6-methyl-4-(trifluoromethyl)pyridin-2-yl)-1,3a,4,5,10,11a-hexahydro-2H-benzo[b]pyrrolo[2,3-f][1,4]diazocine-2,11(3H)-dione]	9.94 nM
Cc1cc(C(F)(F)F)cc(N2C(=O)C[C@@H]3CN(CCN4CCS(=O)(=O)CC4)c4c(C)cccc4N(C)C(=O)[C@H]32)n1 [Example 68, (3aR,11aS)-5-(2-(1,1-Dioxidothiomorpholino)ethyl)-6,10-dimethyl-1-(6-methyl-4-(trifluoromethyl)pyridin-2-yl)-1,3a,4,5,10,11a-hexahydro-2H-benzo[b]pyrrolo[2,3-f][1,4]diazocine-2,11(3H)-dione]	1.07 nM
Cc1cc(C(F)(F)F)cc(N2C(=O)C[C@@H]3CN(CCN4CCN(S(C)(=O)=O)CC4)c4c(Cl)cccc4N(C)C(=O)[C@H]32)n1 [Example 36, (3aR,11aS)-6-Chloro-10-methyl-1-(6-methyl-4-(trifluoromethyl)pyridin-2-yl)-5-(2-(4-(methylsulfonyl)piperazin-1-yl)ethyl)-1,3a,4,5,10,11a-hexahydro-2H-benzo[b]pyrrolo[2,3-f][1,4]diazocine-2,11(3H)-dione]	1.25 nM
Cc1cc(C(F)(F)F)cc(N2C(=O)C[C@@H]3CN(Cc4nc5n(c4F)CCN(C)C5)c4c(C)cccc4N(C)C(=O)[C@H]32)n1 [Example 83, (3aR,11aS)-5-((3-Fluoro-7-methyl-5,6,7,8-tetrahydroimidazo[1,2-a]pyrazin-2-yl)methyl)-6,10-dimethyl-1-(6-methyl-4-(trifluoromethyl)pyridin-2-yl)-1,3a,4,5,10,11a-hexahydro-2H-benzo[b]pyrrolo[2,3-f][1,4]diazocine-2,11(3H)-dione]	0.254 nM

Next, values leading:

Ki	Structure (SMILES)
8.33 nM	C=CCN1C[C@H]2CC(=O)N(c3cc(C(F)(F)F)cc(C)n3)[C@@H]2C(=O)N(C)c2cccc(F)c21 [Example 4, (3aR,11aS)-5-Allyl-6-fluoro-10-methyl-1-(6-methyl-4-(trifluoromethyl)pyridin-2-yl)-1,3a,4,5,10,11a-hexahydro-2H-benzo[b]pyrrolo[2,3-f][1,4]diazocine-2,11(3H)-dione]
461 nM	COc1cc(N2C[C@H]3CC(=O)N(c4cc(C(F)(F)F)cc(C)n4)[C@@H]3C(=O)N(C)c3cccc(F)c32)ccn1 [Example 142, (3aR,11aS)-6-Fluoro-5-(2-methoxypyridin-4-yl)-10-methyl-1-(6-methyl-4-(trifluoromethyl)pyridin-2-yl)-1,3a,4,5,10,11a-hexahydro-2H-benzo[b]pyrrolo[2,3-f][1,4]diazocine-2,11(3H)-dione]
0.777 nM	Cc1cc(C(F)(F)F)cc(N2C(=O)C[C@@H]3CN(CCN4C[C@H]5C[C@@H]4CN5)c4c(C)cccc4N(C)C(=O)[C@H]32)n1 [Example 58, (3aR,11aS)-5-(2-((1R,4R)-2,5-Diazabicyclo[2.2.1]heptan-2-yl)ethyl)-6,10-dimethyl-1-(6-methyl-4-(trifluoromethyl)pyridin-2-yl)-1,3a,4,5,10,11a-hexahydro-2H-benzo[b]pyrrolo[2,3-f][1,4]diazocine-2,11(3H)-dione dihydrochloride]
13.7 nM	Cc1cc(C(F)(F)F)cc(N2C(=O)C[C@@H]3CN(CC4COCCN4)c4c(F)cccc4N(C)C(=O)[C@H]32)n1 (single isomer, unassigned) [Example 106a]
1.94 nM	Cc1cc(C(F)(F)F)cc(N2C(=O)C[C@@H]3CN(Cc4ccc5c(c4)CCN(C)C5)c4c(F)cccc4N(C)C(=O)[C@H]32)n1 [Example 122, (3aR,11aS)-6-Fluoro-10-methyl-5-((2-methyl-1,2,3,4-tetrahydroisoquinolin-6-yl)methyl)-1-(6-methyl-4-(trifluoromethyl)pyridin-2-yl)-1,3a,4,5,10,11a-hexahydro-2H-benzo[b]pyrrolo[2,3-f][1,4]diazocine-2,11(3H)-dione]
0.605 nM	Cc1cc(C(F)(F)F)cc(N2C(=O)C[C@@H]3CN(CCN4CCN(C)[C@H](C)C4)c4c(C)cccc4N(C)C(=O)[C@H]32)n1 [Example 47, (3aR,11aS)-5-(2-((R)-3,4-Dimethylpiperazin-1-yl)ethyl)-6,10-dimethyl-1-(6-methyl-4-(trifluoromethyl)pyridin-2-yl)-1,3a,4,5,10,11a-hexahydro-2H-benzo[b]pyrrolo[2,3-f][1,4]diazocine-2,11(3H)-dione dihydrochloride]
104 nM	Cc1cc(C(F)(F)F)cc(N2C(=O)C[C@@H]3CN(c4ccccn4)c4c(F)cccc4N(C)C(=O)[C@H]32)n1 [Example 134, (3aR,11aS)-6-Fluoro-10-methyl-1-(6-methyl-4-(trifluoromethyl)pyridin-2-yl)-5-(pyridin-2-yl)-1,3a,4,5,10,11a-hexahydro-2H-benzo[b]pyrrolo[2,3-f][1,4]diazocine-2,11(3H)-dione]
2.62 nM	Cc1cc(C(F)(F)F)cc(N2C(=O)C[C@@H]3CN(CCN4CC[C@@H](O)C4)c4c(Cl)cccc4N(C)C(=O)[C@H]32)n1 [Example 31, (3aR,11aS)-6-Chloro-5-(2-((R)-3-hydroxypyrrolidin-1-yl)ethyl)-10-methyl-1-(6-methyl-4-(trifluoromethyl)pyridin-2-yl)-1,3a,4,5,10,11a-hexahydro-2H-benzo[b]pyrrolo[2,3-f][1,4]diazocine-2,11(3H)-dione]
3.05 nM	Cc1cc(C(F)(F)F)cc(N2C(=O)C[C@@H]3CN(C[C@@H]4CCNC4)c4c(Cl)cccc4N(C)C(=O)[C@H]32)n1 [Example 99, (3aR,11aS)-6-Chloro-10-methyl-1-(6-methyl-4-(trifluoromethyl)pyridin-2-yl)-5-(((R)-pyrrolidin-3-yl)methyl)-1,3a,4,5,10,11a-hexahydro-2H-benzo[b]pyrrolo[2,3-f][1,4]diazocine-2,11(3H)-dione hydrochloride]
